The record followed here is patent US20200276181A1, “THIENOISOQUINOLINES AND THEIR DERIVATIVES FOR TARGETING TUBULIN, CH-TOG, AURORA A KINASE, TPX2, CDK5RAP2 AND/OR ASPM” (VALORBEC, SEC, priority 2017, published 2020).

Assay [1] concerns HeLa cells. Put plainly: Spindle morphology, fixed cells stained for tubulin and DAPI. The format is cell-based, human. As to the method: (§1) FIG. 1A) is a line graph showing changes in the percentage of viable HFF-1, HeLa, A549 and HCT 116 cells after treatment with a range of C75 concentrations for 3 population doubling times (N=3). […] There were more rounded mitotic cells after C75 treatment in comparison to the control. FIG. 1C) is a line graph showing the percentage of HeLa and HFF1 cells in mitosis after treatment with various concentrations of C75 for 8 hours. The bars indicate standard deviation. FIG. 1D) is a series of images showing cells that were fixed and co-stained for tubulin (microtubules) and DAPI (DNA). Treatment of HeLa cells with 300 nM C75 caused the mitotic spindles to be disorganized, while they were not affected in HFF1 cells. […] The scale bar for the cells is 10 μm. […] FIG. 1F) is a cartoon schematic showing the key features of a metaphase cell.
(§2) The images in FIG. 1B) show fields of view of HeLa cells treated with (dimethyl sulfoxide) DMSO or 500 nM of C75. […] Higher concentrations of C75 caused spindle phenotypes in HFF1 cells, but they were quite different in comparison to HeLa cells (FIG. 1D).

In assay [2] the test system is HeLa cells in comparison to HFF1 cells. Put plainly: Percentage of cells in mitosis, 8 hours. The settings on record: nanomolar range. It is filed as cell-based. The procedure: as §1, §2
Assay [3] has as its system HeLa cells (GFP:tubulin, SiR-tubulin or GFP-tagged ch-TOG). Put plainly: Live imaging of spindles. The format is cell-based, human. An excerpt:
Bars show standard deviation. […] The bars indicate standard deviation. […] Bars show standard deviation. […] Bars show standard deviation. […] The scale bar for all cells is 10 μm.

A further assay relates to HCT 116 cells. Put plainly: Viability IC50, high-throughput automated analysis (Table 4). It is filed as cell-based. The settings on record: Homo sapiens, 3 population doubling times. As to the method:
as §1, §2

In a further assay the test system is HFF-1 cells. Described as above. The format is cell-based. The settings on record: Homo sapiens, 3 population doubling times. As to the method: as §1, §2
In assay [4] the test system is HeLa cells. The assay is described as above. The format is cell-based. The settings on record: Homo sapiens, 3 population doubling times. As to the method: as §1, §2
Assay [5] concerns A549 cells. The description is as above. It is filed as cell-based. The settings on record: Homo sapiens, 3 population doubling times. The procedure: as §1, §2
The test system of assay [6] is HCT116, HeLa and A549 cells. Put plainly: Cell cycle phases by flow cytometry. The settings on record: 300 nM or 400 nM for 8 hours. The format is cell-based. From the text: For each condition, 20,000 cells were counted per replicate (N=3). Line graphs (right) were made to better illustrate the relative changes in the cell cycle phases for the different treatments. Bars show standard deviation. The asterisks indicate the first statistically significant change in the G0/G1 and G2/M populations determined by a two-way ANOVA with a post-hoc Tukey's multiple comparisons test using 95% confidence intervals. FIG. 2B) is a line graph showing the percentage of HCT116 (p53−/−) cells, A549 cells, HeLa cells and H1299 cells in mitosis after treatment with various concentrations of C75 for one population doubling time. All of the cell lines show an increase in the proportion of mitotic cells after treatment with 200 nM C75. The bars indicate standard deviation. […]
C75 was also tested for efficacy in different cancer cell lines. […] To further assess the role of C75 in disrupting spindles, HeLa cells were treated with 300 nM C75 for 4 hours and the spindle phenotypes were analyzed in more detail (FIG. 2E). […] To assess the affect of C75 on centrosomes, HeLa cells were treated with C75 or nocodazole (a drug that causes microtubule depolymerization as a control) for a short period of time (5 minutes), then the drugs were removed and the cells were analyzed for spindle phenotypes (schematic in FIG. 2G). […]
In general terms: In flow cytometry, cells or beads pass a laser one at a time.

For assay [7], the system named is HeLa cells with lower levels of endogenous MCAK (MCAK RNAi). The assay can be described thus: Spindle phenotypes with MCAK RNAi. The format is cell-based, human. The settings on record: 300 nM C75 or 30 nM colchicine. From the text:
FIG. 8B) is a bar graph showing the proportion of spindle phenotypes in HeLa cells treated as in 8A).
Since this is unique to C75, and ch-TOG RNAi was previously shown to be suppressed (partially) by MCAK RNAi, supporting C75's role in targeting ch-TOG or a component of the pathway.

Another assay relates to HFF1 cells. Put plainly: Spindle morphology, fixed cells stained for tubulin and DAPI. It is filed as cell-based. The settings on record: 300 nM. As to the method: as §1, §2
Assay [8] deals with A549 cells. Put plainly: Viability IC50 of C75 in combination with subthreshold colchicine. The format is cell-based, human. The settings on record: + 9 nM colchicine.

Each structure is given as a SMILES string.

For `COc1ccc(S(=O)(=O)N2Cc3ccccc3-c3sc(Br)cc32)cc1` [Compound C75], the mitotic spindle morphology entry is “spindle organization was perturbed” in the assay on HeLa cells [1] (300 nM); “Centrosomes were fragmented or declustered and microtubules were completely absent” with HeLa cells [1] (750 nM); “not affected” in the assay on HFF1 cells. Further, the “mitotic arrest in HeLa vs HFF1” value in assay [2] is “selectively causes mitotic arrest”. The “time until spindle poles collapse together in metaphase cells” value in [3] (100-300 nM) lay within 1 to 2 min. Also, the “time after exposure until centrosomes fragmented or declustered and microtubules collapsed” value in assay [3] (HeLa live imaging) fell in the range of 4 to 6 min. Further, in assay [3] (HeLa live imaging), the “time after washout until microtubule polymers grew back” value lay in the range of 20 to 30 min. Moreover, the “microtubule polymers without washout” value in assay [3] (HeLa live imaging, drugs not washed out) was “microtubule polymers grow back to form multipolar spindles”. The IC50 turned out to be 431 nM with HCT 116 cells, 789 nM with HFF-1 cells, 427 nM in the assay with HeLa cells [4] and 377 nM in the assay with A549 cells [5]. Also, the “change in proportion of G2/M cells” value in assay [6] was “increase in the proportion of G2/M cells”. For the same compound, the “suppression of fragmented spindle phenotype by MCAK RNAi” value in assay [7] is on record as “partially suppressed”. In the assay on A549 cells [8], the “lowering of the IC50 of C75 by subthreshold colchicine” value was about 2 fold.

As a reminder, the IC50 is the midpoint of a concentration-inhibition curve.
